Consider 22 compounds from US8614238B2, “Cyclopentanecarboxamide derivatives, medicaments containing such compounds and their use” (Boehringer Ingelheim International GmbH, priority 2009, dated 2013).

Each structure is given as a SMILES string.

Experiment [1] concerns N-42 cells. In words: 14C-acetate incorporation in N-42 cells. Format: cell-based. How it is done: ^14C-Acetat Incorporation in N-42 Cells
30000 cells (N-42), in 24 well plates are incubated with the compound dissolved in 500 μL Krebs-Ringer-buffer for 60 min at 37° C., then incubated with 5 μL 1:10 14C-Acetate dilution (1 000 000 dpm) for 4 hours at 37° C. incubation, then washed with 500 μl PBS. 500 μL chloroform/methanol mix 1:1 and 175 μL sodium hydroxide solution was given in each well. The upper fraction is taken away and the lower fraction is vaporized. 50 μL chloroform/methanol mix 1:1 is again given in every well. 10 μL each are taken and given to scintillation vials with 4 mL Ultima Gold. Each vial is measured for 1 minute in a β-Counter.
Cerulenin, a literature known FAS inhibitor is used to validate the assay.

In experiment [2] the target is T1, Fatty Acid Synthase (FAS) (Homo sapiens, UniProt P49327).
T1 construct: The FAS enzyme is prepared from HeLa cells; endogenous in cells; host or cells: HeLa cells
In words: Human FAS Enzyme Assay. Type of experiment: biochemical. Particulars: FAS enzyme prepared from HeLa cells; NADPH consumption; read-out: IC50 (potency range). The source says:
Fatty acid synthase is an enzyme complex that harbours seven enzymatic activities catalysing the reductive synthesis of long chain fatty acids from acetyl CoA and malonyl CoA to palmitate. When acetyl CoA and malonyl CoA are forming palmitate NADPH is consumed forming NADP. Since NADPH is fluorescent but not NADP the reaction can be measured by analysing the decrease in fluorescence.
Acetyl coenzyme A (cat.-no. A-2181) and malonyl coenzyme A (cat.-no. M-4263) are purchased from Sigma. NADPH (cat.-no. 30316) is purchased from Serva. The FAS enzyme is prepared from HeLa cells. All other material is of highest grade commercially available.
In the plates, 10 μl test compound in distilled water/DMSO (final concentration 0.1% DMSO) are mixed with 35 μl of a mixture of NADPH and acetyl CoA in phosphate buffer (f.c. 326 μM and 60 μM, respectively), and 45 μl FAS enzyme diluted in enzyme buffer. The plates are incubated for 60 minutes at 37° C. The reaction is then started by the addition of 10 μl malonyl CoA dissolved in water (200 μM). The decrease of the optical density in the wells is determined at 37° C. at a wavelength of 340 nm over 10 minutes. From these kinetic data, the slope (i.e. Vmax) is calculated and used for the calculation.
20 mM KH2PO4/K2HPO4, 1 mM EDTA, 1 mM DTT, 5% glycerol, pH 7.4
Each assay 96 well microtiter plate contains wells with vehicle controls instead of compound (1% DMSO in water) as reference for non-inhibited enzyme activity and wells without malonyl CoA as controls for non-specific NADPH degradation. The analysis of the data is performed by the calculation of the OD decrease in the presence of the test compound compared to the OD decrease of the test control wells after subtraction of the non-specific background without the malonyl CoA substrate (slope(sample)-slope(sample w/o malonyl CoA). An inhibitor of the FAS enzyme will give values between Control values (complete reaction without substance) and complete inhibition. Reported values will include: IC50; Top(Control: nmol NADPH oxidized/min/mg); Bottom (MaxInh: nmol NADPH oxidized/min/mg); RATIO (log(IC50 substance/IC50 control inhibitor)).

T1 sequence (P49327 whole entry): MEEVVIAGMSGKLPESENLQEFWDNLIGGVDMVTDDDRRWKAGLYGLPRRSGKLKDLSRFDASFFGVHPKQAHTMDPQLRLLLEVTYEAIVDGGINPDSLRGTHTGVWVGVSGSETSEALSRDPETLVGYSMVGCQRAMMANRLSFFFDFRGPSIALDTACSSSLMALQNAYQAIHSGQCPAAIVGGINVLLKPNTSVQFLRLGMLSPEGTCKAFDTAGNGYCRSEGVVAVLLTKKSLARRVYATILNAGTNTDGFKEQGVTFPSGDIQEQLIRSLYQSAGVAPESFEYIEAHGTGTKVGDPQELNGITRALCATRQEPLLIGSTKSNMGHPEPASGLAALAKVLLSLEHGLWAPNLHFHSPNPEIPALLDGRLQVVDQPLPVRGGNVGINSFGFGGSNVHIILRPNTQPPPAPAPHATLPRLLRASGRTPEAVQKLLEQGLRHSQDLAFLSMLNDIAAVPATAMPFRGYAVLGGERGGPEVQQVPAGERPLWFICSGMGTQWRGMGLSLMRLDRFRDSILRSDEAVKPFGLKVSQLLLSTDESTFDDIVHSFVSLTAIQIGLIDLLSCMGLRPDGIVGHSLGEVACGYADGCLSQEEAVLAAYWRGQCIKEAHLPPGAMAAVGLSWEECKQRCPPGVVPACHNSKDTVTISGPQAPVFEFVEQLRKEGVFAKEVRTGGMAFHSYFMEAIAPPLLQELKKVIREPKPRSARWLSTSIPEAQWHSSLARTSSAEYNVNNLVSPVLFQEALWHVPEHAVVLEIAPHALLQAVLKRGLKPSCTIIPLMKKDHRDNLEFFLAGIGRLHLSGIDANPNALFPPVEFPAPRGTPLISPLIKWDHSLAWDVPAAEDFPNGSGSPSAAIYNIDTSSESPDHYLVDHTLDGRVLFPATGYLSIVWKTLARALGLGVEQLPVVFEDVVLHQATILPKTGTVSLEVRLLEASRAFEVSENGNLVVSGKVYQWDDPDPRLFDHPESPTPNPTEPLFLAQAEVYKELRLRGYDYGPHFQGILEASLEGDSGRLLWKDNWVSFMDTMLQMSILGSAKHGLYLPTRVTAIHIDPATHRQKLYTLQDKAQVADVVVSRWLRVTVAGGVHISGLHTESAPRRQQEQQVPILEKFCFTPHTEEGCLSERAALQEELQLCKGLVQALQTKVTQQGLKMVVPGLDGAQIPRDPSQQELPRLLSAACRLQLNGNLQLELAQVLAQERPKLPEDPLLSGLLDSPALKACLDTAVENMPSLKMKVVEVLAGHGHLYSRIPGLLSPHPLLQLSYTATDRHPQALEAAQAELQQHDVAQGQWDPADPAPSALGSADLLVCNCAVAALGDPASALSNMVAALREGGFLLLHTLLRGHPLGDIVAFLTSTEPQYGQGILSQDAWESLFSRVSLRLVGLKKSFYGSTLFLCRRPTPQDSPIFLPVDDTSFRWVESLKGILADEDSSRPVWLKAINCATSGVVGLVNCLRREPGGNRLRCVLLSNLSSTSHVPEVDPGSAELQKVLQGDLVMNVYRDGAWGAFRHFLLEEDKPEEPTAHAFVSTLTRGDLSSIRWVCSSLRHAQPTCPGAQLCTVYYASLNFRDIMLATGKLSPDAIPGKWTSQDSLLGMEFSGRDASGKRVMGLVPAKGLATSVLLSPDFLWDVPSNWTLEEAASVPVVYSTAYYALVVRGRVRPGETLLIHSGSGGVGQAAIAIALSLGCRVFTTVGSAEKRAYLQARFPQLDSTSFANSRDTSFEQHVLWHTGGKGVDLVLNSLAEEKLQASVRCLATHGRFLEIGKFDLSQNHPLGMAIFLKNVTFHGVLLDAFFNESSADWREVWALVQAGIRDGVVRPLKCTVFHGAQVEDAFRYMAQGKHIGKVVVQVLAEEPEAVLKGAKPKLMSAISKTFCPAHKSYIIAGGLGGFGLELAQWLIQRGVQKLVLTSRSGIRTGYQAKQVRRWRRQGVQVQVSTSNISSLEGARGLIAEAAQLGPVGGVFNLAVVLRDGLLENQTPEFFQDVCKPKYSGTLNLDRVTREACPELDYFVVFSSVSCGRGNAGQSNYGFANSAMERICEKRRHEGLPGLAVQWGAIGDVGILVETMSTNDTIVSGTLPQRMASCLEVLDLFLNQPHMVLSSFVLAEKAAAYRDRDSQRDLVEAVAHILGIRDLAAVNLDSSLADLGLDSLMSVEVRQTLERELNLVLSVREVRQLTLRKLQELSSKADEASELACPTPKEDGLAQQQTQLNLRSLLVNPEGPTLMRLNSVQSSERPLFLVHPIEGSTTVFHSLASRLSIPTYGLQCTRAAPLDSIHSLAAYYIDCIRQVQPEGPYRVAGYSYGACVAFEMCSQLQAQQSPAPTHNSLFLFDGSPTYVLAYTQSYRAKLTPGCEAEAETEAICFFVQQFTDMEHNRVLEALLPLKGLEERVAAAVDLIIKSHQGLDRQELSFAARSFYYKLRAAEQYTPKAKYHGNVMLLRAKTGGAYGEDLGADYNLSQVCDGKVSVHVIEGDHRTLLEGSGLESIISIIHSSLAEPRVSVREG

With `C/C=C/C/C=C/CCC(=O)[C@H]1O[C@H]1C(N)=O` [Cerulenin, reference compound], the “% control 14C acetate incorporation” value in experiment [1] (compound at 100 μM) came to 73.3 % control.
Broadly, the IC50 is the concentration needed to halve the response being measured. Take `CCNC(=O)N[C@H]1CC[C@@H](C(=O)N(C)c2ccc(-c3nc4ccccc4o3)cc2)C1` [Example 1.1, (1R,3S)-3-(3-Ethyl-ureido)-cyclopentanecarboxylic acid N-(4-benzooxazol-2-yl-phenyl)-N-methyl-amide]: the IC50 in experiment [2] was 500 to 3000 nM.
Turning to `CC(=O)N[C@H]1CC[C@@H](C(=O)N(C)c2ccc(-c3nc4ccccc4o3)cc2)C1` [Example 1.3, (1R,3S)-3-Acetylamino-cyclopentanecarboxylic acid N-(4-benzooxazol-2-yl-phenyl)-N-methyl-amide], the IC50 in experiment [2] is no more than 500 nM. In experiment [1] (compound at 10 μM), the “% control 14C acetate incorporation” value amounted to 81.7 % control.
For the compound `CN(C)CCCCCC(=O)N[C@H]1CC[C@@H](C(=O)N(C)c2ccc(-c3nc4ccccc4o3)cc2)C1` [Example 1.4, (1R,3S)-3-(6-Dimethylamino-hexanoylamino)-cyclopentanecarboxylic acid N-(4-benzooxazol-2-yl-phenyl)-N-methyl-amide], in experiment [2], the IC50 is 500 to 3000 nM.
For `COCC(=O)N[C@H]1CC[C@@H](C(=O)N(C)c2ccc(-c3nc4ccccc4o3)cc2)C1` [Example 1.5, (1R,3S)-3-(2-Methoxy-acetylamino)-cyclopentanecarboxylic acid N-(4-benzooxazol-2-yl-phenyl)-N-methyl-amide], the IC50 in experiment [2] was 500 to 3000 nM.
With `CCCC(=O)N[C@H]1CC[C@@H](C(=O)N(C)c2ccc(-c3nc4ccccc4o3)cc2)C1` [Example 1.6, (1R,3S)-3-Butyrylamino-cyclopentanecarboxylic acid N-(4-benzooxazol-2-yl-phenyl)-N-methyl-amide], the IC50 in experiment [2] was no more than 500 nM. Also, the “% control 14C acetate incorporation” value in experiment [1] (compound at 10 μM) stood at 81.0 % control.
With `CN(C)C(=O)N[C@H]1CC[C@@H](C(=O)N(C)c2ccc(-c3nc4ccccc4o3)cc2)C1` [Example 1.7, (1R,3S)-3-(3,3-Dimethyl-ureideo)-cyclopentanecarboxylic acid N-(4-benzooxazol-2-yl-phenyl)-N-methyl-amide], the IC50 in experiment [2] was no more than 500 nM.
Take `CN(C(=O)[C@@H]1CC[C@H](NC(=O)C(F)F)C1)c1ccc(-c2nc3ccccc3o2)cc1` [Example 1.8, (1R,3S)-3-(2,2-Difluoro-acetylamino)-cyclopentanecarboxylic acid N-(4-benzooxazol-2-yl-phenyl)-N-methyl-amide]: the IC50 in experiment [2] is no more than 500 nM.
Consider `CCC(=O)N[C@H]1CC[C@@H](C(=O)N(C)c2ccc(-c3nc4ccccc4[nH]3)cc2)C1` [Example 2.1, (1R,3S)-3-Propionylamino-cyclopentanecarboxylic acid N-[4′-(1H-benzoimidazol-2-yl)-phenyl]-N-methyl-amide], for which the IC50 in experiment [2] is no more than 500 nM. Besides, in experiment [1] (compound at 10 μM), the “% control 14C acetate incorporation” value is listed as 80.8 % control.
`CC(=O)N[C@H]1CC[C@@H](C(=O)N(C)c2ccc(-c3nc4ccccc4[nH]3)cc2)C1` [Example 2.2, (1R,3S)-3-Acetylamino-cyclopentanecarboxylic acid N-[4′-(1H-benzoimidazol-2-yl)-phenyl]-N-methyl-amide]: the IC50 in experiment [2] lay in the range of 500 to 3000 nM.
As to `CC(C)C(=O)N[C@H]1CC[C@@H](C(=O)N(C)c2ccc(-c3nc4ccccc4[nH]3)cc2)C1` [Example 2.3, (1R,3S)-3-Isobutyrylamino-cyclopentanecarboxylic acid N-[4′-(1H-benzoimidazol-2-yl)-phenyl]-N-methyl-amide], the IC50 in experiment [2] was 500 to 3000 nM.
For `CCNC(=O)N[C@H]1CC[C@@H](C(=O)N(C)c2ccc(-c3nc4ccccc4[nH]3)cc2)C1` [Example 2.4, (1R,3S)-3-(3-Ethyl-ureido)-cyclopentanecarboxylic acid N-[4′-(1H-benzoimidazol-2-yl)-phenyl]-N-methyl-amide], in experiment [2], the concentration for half-maximal inhibition (IC50) is no more than 500 nM.
For `CN(C)CCCCCC(=O)N[C@H]1CC[C@@H](C(=O)N(C)c2ccc(-c3nc4ccccc4[nH]3)cc2)C1` [Example 2.5, (1R,3S)-3-(6-Dimethylamino-hexanoylamino)-cyclopentanecarboxylic acid N-[4′-(1H-benzoimidazol-2 yl)-phenyl]-N-methyl-amide], the IC50 in experiment [2] lay within 500 to 3000 nM.
`CCC(=O)N[C@H]1CC[C@@H](C(=O)N(C)c2ccc(-c3ccccc3)cc2)C1` [Example 3.1, (1R,3S)-3-Propionylamino-cyclopentanecarboxylic acid N-biphenyl-4-yl-N-methyl-amide]: the IC50 in experiment [2] was no more than 500 nM. For the same compound, the “% control 14C acetate incorporation” value in experiment [1] (compound at 10 μM) worked out at 76.8 % control.
Regarding `CC(C)C(=O)N[C@H]1CC[C@@H](C(=O)N(C)c2ccc(-c3ccccc3)cc2)C1` [Example 3.2, (1R,3S)-3-Isobutyrylamino-cyclopentanecarboxylic acid N-biphenyl-4-yl-N-methyl-amide], in experiment [2], the IC50 is no more than 500 nM.
Turning to `CC(=O)N[C@H]1CC[C@@H](C(=O)N(C)c2ccc(-c3ccccc3)cc2)C1` [Example 3.3, (1R,3S)-3-Acetylamino-cyclopentanecarboxylic acid N-biphenyl-4-yl-N-methyl-amide], in experiment [2], the IC50 is no more than 500 nM.
As to `CCNC(=O)N[C@H]1CC[C@@H](C(=O)N(C)c2ccc(-c3ccccc3)cc2)C1` [Example 3.4, (1R,3S)-3-(3-Ethyl-ureido)-cyclopentanecarboxylic acid N-biphenyl-4-yl-N-methyl-amide], the IC50 in experiment [2] lay within 500 to 3000 nM.
Turning to `CN(C)CCCCCC(=O)N[C@H]1CC[C@@H](C(=O)N(C)c2ccc(-c3ccccc3)cc2)C1` [Example 3.5, (1R,3S)-3-(6-Dimethylamino-hexanoylamino)-cyclopentanecarboxylic acid N-biphenyl-4-yl-N-methyl-amide], the IC50 in experiment [2] is 500 to 3000 nM.
On the same count and under the same terms, the result for `CCNC(=O)N[C@H]1CC[C@@H](C(=O)N(C)c2ccc(-c3nc4ccccc4n3C)cc2)C1` [Example 4.1, (1R,3S)-3-(3-Ethyl-ureido)-cyclopentanecarboxylic acid N-methyl-N-[4-(1-methyl-1H-benzoimidazol-2-yl)-phenyl]-amide] reads 500 to 3000 nM; that for `CN(C)CCCCCC(=O)N[C@H]1CC[C@@H](C(=O)N(C)c2ccc(-c3nc4ccccc4n3C)cc2)C1` [Example 4.2, (1R,3S)-3-(6-Dimethylamino-hexanoylamino)-cyclopentanecarboxylic acid N-methyl-N-[4-(1-methyl-1H-benzoimidazol-2-yl)-phenyl]-amide], 500 to 3000 nM.
For the compound `CCC(=O)N[C@H]1CC[C@@H](C(=O)N(C)c2ccc(-c3nc4ccccc4n3C)cc2)C1` [Example 5.1, (1R,3S)-3-Propionylamino-cyclopentanecarboxylic acid N-methyl-N-[4-(1-methyl-1H-benzoimidazol-2-yl)-phenyl]-amide], the IC50 in experiment [2] was no more than 500 nM. In experiment [1] (compound at 10 μM), the “% control 14C acetate incorporation” value turned out to be 85.7 % control.
For `CCC(=O)N[C@H]1CC[C@@H](C(=O)N(C)c2ccc(-c3cn4ccccc4n3)cc2)C1` [Example 5.2, (1R,3S)-3-Propionylamino-cyclopentanecarboxylic acid N-[4-(imidazo[1,2-a]pyridin-2-yl)-phenyl]-N-methyl-amide], the IC50 in experiment [2] was 500 to 3000 nM.
